{
  "source": "patent US20060228297A1",
  "about": "“Thorium-227 for use in radiotherapy of soft tissue disease” (priority 2003, published 2006)",
  "key": {"adult dogs": {"system": "adult dogs", "settings": "cited from earlier work; for % of baseline at nadir (neutrophils) / Days to nadir (neutrophils): dogs"}, "[1]": {"system": "CD20 antigen expressing human lymphoma cell line DAUDI", "test": "Binding of ^227Th labeled antibody to DAUDI human lymphoma cells", "settings": "for Mean cpm bound per cell pellet, Unblocked: 2×10^7 DAUDI cells, two hours at 8° C., mean of a duplicate; for Mean cpm bound per cell pellet, Blocked: cells pre-saturated with 40 μg unlabeled rituximab; for Thorium-227 atoms bound per cell, Blocked: cells pre-saturated with unlabeled rituximab", "description": "DAUDI cells were purchased from European Collection of Cell Cultures (ECACC), Salisbury, UK, and grown according to supplier's instructions using culture medium and supplement from Gibco (Paisley, Scotland, UK) and using 500 ml culture flasks (Cell Star, Greiner Bio-One GmbH, Frickenhausen, Germany). DAUDI cells (2×10^7 cells in 0.7 ml PBS) were used to study binding of ^227Th labeled rituximab in vitro. As control of nonspecific binding, DAUDI cells pre-saturated (blocked) with 40 μg unlabeled rituximab for 15 minutes were used. To the test tubes (Polystyrene culture test tubes, 12×75 mm, Elkay, Shrewsbury, Mass., USA) were added ^227Th labeled rituximab corresponding to 1.3, 5.3, or 26 μg/ml respectively. The experiment was performed in duplicate at each concentration level using unblocked and blocked cells. Incubation was performed for two hours at 8° C. After incubation, cell suspensions were counted for radioactivity (Crystal II Multidetector, Packard Instrument Company Inc. Downers Grove, Ill., USA) and the cells washed with 2 ml of 1% BSA (Albumin, Bovine Fraction V, Sigma Chemical Co., St. Louis, Mo., USA) in PBS (Gibco, Paisley, Scotland, UK) and centrifuged (Centrifuge 5810 R, Eppendorf AG, Hamburg, Germany) at 200 rpm for 5 minutes. The washing/centrifugation was repeated twice. Thereafter the cell pellets were counted for radioactivity. The results (each the mean of a duplicate) are set out in Table 3 below."}, "[2]": {"settings": "13 kBq/kg single intravenous injection"}, "[3]": {"settings": "40 kBq/kg single intravenous injection"}, "[4]": {"settings": "120 kBq/kg single intravenous injection"}, "[5]": {"settings": "350 kBq/kg single intravenous injection"}},
  "note": "Where two headings read alike, the source gives them in different places.",
  "data": [
    {"molecule": "[224Ra]", "note": "[^224Ra, radium-224]", "values": [
      {"measurement": "Death caused by haematological dyscrasia resulting from bone marrow destruction, number of dogs", "setting": "adult dogs; 350 kBq/kg", "value": "3 dogs out of 8"},
      {"measurement": "% of baseline at nadir (neutrophils)", "setting": "adult dogs; [2]", "value": 60, "unit": "%"},
      {"measurement": "Days to nadir (neutrophils)", "setting": "adult dogs; [2]", "value": 30, "unit": "days"},
      {"measurement": "% of baseline at nadir (neutrophils)", "setting": "adult dogs; [3]", "value": 70, "unit": "%"},
      {"measurement": "Days to nadir (neutrophils)", "setting": "adult dogs; [3]", "value": 10, "unit": "days"},
      {"measurement": "% of baseline at nadir (neutrophils)", "setting": "adult dogs; [4]", "value": 20, "unit": "%"},
      {"measurement": "Days to nadir (neutrophils)", "setting": "adult dogs; [4]", "value": 10, "unit": "days"},
      {"measurement": "% of baseline at nadir (neutrophils)", "setting": "adult dogs; [5]", "value": 4, "unit": "%"},
      {"measurement": "Days to nadir (neutrophils)", "setting": "adult dogs; [5]", "value": 10, "unit": "days"}
    ]},
    {"molecule": "^227Th-labeled rituximab", "values": [
      {"measurement": "Thorium-227 atoms bound per cell, Net specific bound", "setting": "[1]; RIC conc. 1.3 μg/ml added", "value": 1.7},
      {"measurement": "Thorium-227 atoms bound per cell, Unblocked", "setting": "[1]; RIC conc. 1.3 μg/ml added", "value": 1.9},
      {"measurement": "Mean cpm bound per cell pellet, Unblocked", "setting": "[1]; RIC conc. 1.3 μg/ml added", "value": 226, "unit": "cpm"},
      {"measurement": "Mean cpm bound per cell pellet, Blocked", "setting": "[1]; RIC conc. 1.3 μg/ml added", "value": 25, "unit": "cpm"},
      {"measurement": "Thorium-227 atoms bound per cell, Blocked", "setting": "[1]; RIC conc. 1.3 μg/ml added", "value": 0.2},
      {"measurement": "Thorium-227 atoms bound per cell, Net specific bound", "setting": "[1]; RIC conc. 5.3 μg/ml added", "value": 9.3},
      {"measurement": "Thorium-227 atoms bound per cell, Unblocked", "setting": "[1]; RIC conc. 5.3 μg/ml added", "value": 10.1},
      {"measurement": "Mean cpm bound per cell pellet, Unblocked", "setting": "[1]; RIC conc. 5.3 μg/ml added", "value": 1186, "unit": "cpm"},
      {"measurement": "Mean cpm bound per cell pellet, Blocked", "setting": "[1]; RIC conc. 5.3 μg/ml added", "value": 97, "unit": "cpm"},
      {"measurement": "Thorium-227 atoms bound per cell, Blocked", "setting": "[1]; RIC conc. 5.3 μg/ml added", "value": 0.8},
      {"measurement": "Thorium-227 atoms bound per cell, Net specific bound", "setting": "[1]; RIC conc. 26.0 μg/ml added", "value": 32.5},
      {"measurement": "Thorium-227 atoms bound per cell, Unblocked", "setting": "[1]; RIC conc. 26.0 μg/ml added", "value": 35.2},
      {"measurement": "Mean cpm bound per cell pellet, Unblocked", "setting": "[1]; RIC conc. 26.0 μg/ml added", "value": 4141, "unit": "cpm"},
      {"measurement": "Mean cpm bound per cell pellet, Blocked", "setting": "[1]; RIC conc. 26.0 μg/ml added", "value": 315, "unit": "cpm"},
      {"measurement": "Thorium-227 atoms bound per cell, Blocked", "setting": "[1]; RIC conc. 26.0 μg/ml added", "value": 2.7},
      {"measurement": "RIC bound to the unblocked vs. the blocked cells", "setting": "[1]; on average over the three concentrations", "value": "about 12 times"},
      {"measurement": "Specific binding to the DAUDI cells", "setting": "[1]; unblocked vs. blocked cells", "value": "did bind specifically"}
    ]}
  ]
}
